# Reference: patent US9809573B2, “Substituted pyridine derivatives useful as GSK-3 inhibitors” (priority 2013, dated 2017)
# pIC50: −log10 of the molar value. Where two headings read alike, the source gives them in different places.
# Key:
# [1] = system: pTau; test: pTau assay (method not described); type: cell-based; conditions: for pIC50: read-out: pTau
# [2] = molecular target: GSK3α (Homo sapiens, UniProt P49840); test: biochemical; conditions: for IC50: second value of the cell, 250 pM enzyme, 20 uM ATP, 20 hours at room temperature, read-out: GSK3β/α (nM): GSK3α IC50
# GSK3α, sequence (P49840 whole entry, species assumed): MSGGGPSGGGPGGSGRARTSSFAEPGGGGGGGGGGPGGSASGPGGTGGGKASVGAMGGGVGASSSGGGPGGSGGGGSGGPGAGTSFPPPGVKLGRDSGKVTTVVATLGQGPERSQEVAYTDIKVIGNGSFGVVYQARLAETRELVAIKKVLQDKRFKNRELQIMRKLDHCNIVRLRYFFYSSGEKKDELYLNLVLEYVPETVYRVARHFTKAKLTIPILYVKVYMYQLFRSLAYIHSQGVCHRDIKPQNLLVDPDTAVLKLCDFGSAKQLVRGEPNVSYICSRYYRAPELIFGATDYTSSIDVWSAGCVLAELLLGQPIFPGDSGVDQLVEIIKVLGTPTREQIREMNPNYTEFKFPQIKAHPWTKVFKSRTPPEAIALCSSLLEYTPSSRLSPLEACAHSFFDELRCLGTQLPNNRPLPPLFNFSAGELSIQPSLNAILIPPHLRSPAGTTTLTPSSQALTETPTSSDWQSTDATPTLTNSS
# Method in brief: (§1)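 Kinase reactions ran at room temperature for 20 hours, then were stopped with EDTA. Phosphorylated product and unphosphorylated substrate were separated electrophoretically on a LabChip3000, and IC50s came from non-linear regression over eleven compound concentrations.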
# [3] = molecular target: GSK3β (Homo sapiens, UniProt P49841); test: GSK3β kinase assay (Caliper LabChip3000, fluoresceinated peptide substrate); type: biochemical; conditions: for IC50: first value of the cell, 250 pM enzyme, 20 uM ATP, 20 hours at room temperature, read-out: GSK3β/α (nM): GSK3β IC50
# GSK3β, sequence (P49841 whole entry, species assumed): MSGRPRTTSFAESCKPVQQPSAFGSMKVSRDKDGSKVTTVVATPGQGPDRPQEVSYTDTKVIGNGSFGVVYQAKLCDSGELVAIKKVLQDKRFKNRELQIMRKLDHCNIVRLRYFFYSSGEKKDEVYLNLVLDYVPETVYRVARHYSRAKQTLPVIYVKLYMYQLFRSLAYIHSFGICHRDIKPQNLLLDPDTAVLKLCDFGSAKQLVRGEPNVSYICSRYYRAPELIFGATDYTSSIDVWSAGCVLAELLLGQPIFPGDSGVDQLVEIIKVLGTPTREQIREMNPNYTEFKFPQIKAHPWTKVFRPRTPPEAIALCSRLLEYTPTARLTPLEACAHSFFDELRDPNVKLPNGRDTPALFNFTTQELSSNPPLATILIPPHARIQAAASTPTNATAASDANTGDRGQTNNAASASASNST
# Method in brief: as §1
SMILES,IC50 ([1]; read-out: pTau (nM)) [nM],pIC50 [2],pIC50 [3],pIC50 [1],IC50 [2] [nM],IC50 [3] [nM]
"C[C@@H]1CN(c2ccncc2NC(=O)c2ccnc(NC(=O)C3CC3)c2)CCO1 (single isomer, unassigned) [Example 77]",220,8.57,8.06,,,
"CC(C)c1ccc(-c2ccncc2NC(=O)c2ccnc(NC(=O)C3CC3)c2)cc1 [Example 75, 2-(Cyclopropanecarboxamido)-N-(4-(4-isopropylphenyl)pyridine-3-yl)isonicotinamide]",,,,6.34,7.4,30
"COc1ccc(-c2ccncc2NC(=O)c2ccnc(NC(=O)C3CC3)c2)c(F)c1 [Example 81, 2-(Cyclopropanecarboxamido)-N-(4-(2-fluoro-4-methoxyphenyl)pyridin-3-yl)isonicotinamide]",,,,7.51,0.58,1.3
"O=C(Nc1cnccc1-c1cc2ccccc2o1)c1ccnc(NC(=O)C2CC2)c1 [Example 95, N-(4-(benzofuran-2-yl)pyridin-3-yl)-2-(cyclopropanecarboxamido)isonicotinamide]",,,,7.00,1.4,1.9
"CC(C)C(=O)Nc1cc(C(=O)Nc2cncc(C(O)c3ccccc3)c2)ccn1 (stereo not drawn) [Example 197, N-(5-(hydroxy(phenyl)methyl)pyridin-3-yl)-2-isobutyramidoisonicotinamide]",,,,6.49,12,19
